Test systems include UACC-257 melanoma; SNB-19 CNS; SK-MEL-28 melanoma; SF-295 CNS; NCI-H522 lung; K-562 leukemia; COLO 205 colon; MALME-3M melanoma; UACC-62 melanoma; LOX IMVI melanoma.
What all share (experiment): DTP human tumour cell line panel, 48 h

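Values below derive from 48-hour exposures of cells grown in 96-well plates, with endpoints linearly interpolated between the two concentrations bracketing the appropriate inhibition level. The concentration for 50% growth inhibition is given as GI50. TGI: total growth inhibition.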

Take `O=c1[nH]c(-c2ccccc2)nc2ccc(Cl)cc12`: the TGI in the experiment with UACC-257 melanoma was more than 100 µM; with SNB-19 CNS it was more than 100 µM; in the experiment with SK-MEL-28 melanoma it was more than 100 µM; with SF-295 CNS, more than 100 µM; in the experiment with NCI-H522 lung it was 95.7 µM; with K-562 leukemia, more than 100 µM. Besides, the concentration for total growth inhibition (TGI) with COLO 205 colon and in the experiment on MALME-3M melanoma was more than 100 µM each time.
Regarding `ON(CCc1ccncc1)Cc1ccccc1`, the TGI in the experiment on UACC-62 melanoma, with SNB-19 CNS, in the experiment on LOX IMVI melanoma, in the experiment with SK-MEL-28 melanoma, in the experiment with SF-295 CNS and in the experiment with NCI-H522 lung was more than 100 µM in each case. Moreover, the TGI in the experiment with K-562 leukemia, with COLO 205 colon and in the experiment with MALME-3M melanoma was more than 100 µM each time.
`C[C@]12CC/C(=N\N)C[C@@H]1CC[C@@H]1[C@@H]2CC[C@]2(C)/C(=N/N)CC[C@@H]12`: the GI50 in the experiment on UACC-257 melanoma, with UACC-62 melanoma, with LOX IMVI melanoma, with SF-295 CNS, in the experiment on NCI-H522 lung and in the experiment on K-562 leukemia was more than 100 µM throughout. The GI50 with MALME-3M melanoma is more than 100 µM. Also, the TGI in the experiment with UACC-257 melanoma, in the experiment with UACC-62 melanoma, with LOX IMVI melanoma, in the experiment with SF-295 CNS, in the experiment with NCI-H522 lung and in the experiment on K-562 leukemia was more than 100 µM each time. The compound further yielded a TGI with MALME-3M melanoma of more than 100 µM.
In the case of `COc1ccc(-c2nsc3c2NC(=O)CC3c2ccc3c(c2)OCO3)cc1` (configuration not stated), the GI50 with UACC-257 melanoma was 10.8 µM; with UACC-62 melanoma it was 1.21 µM; in the experiment on SNB-19 CNS, 48.7 µM; with SK-MEL-28 melanoma it was 5.28 µM; in the experiment on SF-295 CNS it was 1.92 µM; in the experiment with NCI-H522 lung it was 0.464 µM. The GI50 was 0.408 µM with K-562 leukemia, 0.627 µM in the experiment on COLO 205 colon and 0.77 µM with MALME-3M melanoma. The TGI in the experiment on UACC-257 melanoma is more than 100 µM; with UACC-62 melanoma, more than 100 µM; in the experiment with SNB-19 CNS it was more than 100 µM; with SK-MEL-28 melanoma, more than 100 µM; in the experiment on SF-295 CNS, 25.9 µM; with NCI-H522 lung, 3.57 µM. Besides, the results for the total growth inhibition concentration (TGI) in the experiment on K-562 leukemia, in the experiment on COLO 205 colon and in the experiment on MALME-3M melanoma were more than 100 µM, 3.72 µM and more than 100 µM, respectively.
`Cc1[nH]c(C(=O)Nc2ccc(C(=O)N3CCNCC3)cc2OC(C)C)c(Cl)c1Cl`: the GI50 is 1.79 µM with UACC-257 melanoma; 1.8 µM in the experiment with UACC-62 melanoma; 1.89 µM with SNB-19 CNS; 1.77 µM in the experiment with LOX IMVI melanoma; 1.78 µM with SK-MEL-28 melanoma; 1.89 µM in the experiment on SF-295 CNS. In addition, the GI50 in the experiment with NCI-H522 lung was 1.72 µM; with K-562 leukemia it was 2.15 µM; in the experiment with MALME-3M melanoma, 1.59 µM. Besides, the TGI in the experiment on UACC-257 melanoma is 3.52 µM; with UACC-62 melanoma, 3.38 µM; in the experiment with SNB-19 CNS, 3.95 µM; with LOX IMVI melanoma, 3.25 µM; in the experiment with SK-MEL-28 melanoma, 3.24 µM; with SF-295 CNS it was 3.68 µM. Further, the concentration for total growth inhibition (TGI) came to 3.42 µM with NCI-H522 lung, 4.71 µM in the experiment with K-562 leukemia and 3.05 µM in the experiment on MALME-3M melanoma.
For `CC1=C(C)CC2(SC1)C(=O)c1ccccc1C2=O`, the total growth inhibition concentration (TGI) with UACC-257 melanoma, in the experiment on UACC-62 melanoma, with SNB-19 CNS, in the experiment on LOX IMVI melanoma, with SF-295 CNS and in the experiment on NCI-H522 lung was more than 100 µM each time. Further, the TGI in the experiment with K-562 leukemia, in the experiment with COLO 205 colon and in the experiment with MALME-3M melanoma was more than 100 µM each time.
Take `Cc1ccc2c[c]1[Hg][CH2]COS2(=O)=O`: the GI50 in the experiment with UACC-257 melanoma is 16.4 µM; in the experiment with UACC-62 melanoma, 17.2 µM; in the experiment on SNB-19 CNS, more than 100 µM; with LOX IMVI melanoma, 18.5 µM; in the experiment on SK-MEL-28 melanoma, 16.4 µM; in the experiment on NCI-H522 lung, 22.6 µM. Moreover, the values for the GI50 in the experiment on K-562 leukemia, in the experiment with COLO 205 colon and in the experiment on MALME-3M melanoma were 16.4 µM, 18.8 µM and 19.8 µM, respectively. The TGI is 29.9 µM in the experiment on UACC-257 melanoma; 30.9 µM with UACC-62 melanoma; more than 100 µM with SNB-19 CNS; 36.4 µM in the experiment with LOX IMVI melanoma; 29.9 µM in the experiment on SK-MEL-28 melanoma; 42.8 µM in the experiment on NCI-H522 lung. Also, the results for the total growth inhibition concentration (TGI) in the experiment with K-562 leukemia, in the experiment on COLO 205 colon and in the experiment on MALME-3M melanoma were 41.2 µM, 32.8 µM and 34 µM, respectively.
For the compound `O=C1c2ccccc2-c2nccc3cc(Cl)nc1c23`, the GI50 is 2.77 µM with UACC-62 melanoma; 20.7 µM with SNB-19 CNS; 1.13 µM with LOX IMVI melanoma; 2.22 µM in the experiment on SK-MEL-28 melanoma; 4.61 µM in the experiment with SF-295 CNS; 0.458 µM in the experiment with NCI-H522 lung. For the same compound, the results for the GI50 with K-562 leukemia and in the experiment with MALME-3M melanoma were 0.665 µM and 0.908 µM, respectively. Besides, the TGI in the experiment with UACC-62 melanoma is 13 µM; in the experiment on SNB-19 CNS, 74.8 µM; in the experiment with LOX IMVI melanoma, 2.33 µM; with SK-MEL-28 melanoma, 15.8 µM; in the experiment with SF-295 CNS it was more than 88.9 µM; in the experiment on NCI-H522 lung, 1.61 µM. Further, the total growth inhibition concentration (TGI) was 5.24 µM in the experiment with K-562 leukemia and 2.42 µM in the experiment with MALME-3M melanoma.
On to `CN(C)c1ccc(/C=C/C(=O)C(C)(C)C)cc1Br`, for which the concentration for total growth inhibition (TGI) in the experiment with UACC-257 melanoma is 61.9 µM; in the experiment with UACC-62 melanoma, 34.2 µM; with SNB-19 CNS, more than 100 µM; with SK-MEL-28 melanoma, 47.7 µM; in the experiment with SF-295 CNS, more than 100 µM; in the experiment on NCI-H522 lung it was 31.9 µM. Further, the concentration for total growth inhibition (TGI) in the experiment with K-562 leukemia was 86.3 µM; with COLO 205 colon, 67.2 µM; in the experiment on MALME-3M melanoma, more than 100 µM.
On to `O=[N+]([O-])c1cc(O)c(O)cc1-c1cn2ccsc2n1`, for which the GI50 in the experiment on UACC-257 melanoma is more than 100 µM; in the experiment on UACC-62 melanoma, 54.2 µM; in the experiment on SNB-19 CNS, 91.1 µM; in the experiment on LOX IMVI melanoma, 52 µM; in the experiment with SK-MEL-28 melanoma, 55.5 µM; with SF-295 CNS, 31.2 µM. Further, the GI50 in the experiment on NCI-H522 lung was 33 µM; with COLO 205 colon, 75.2 µM; in the experiment with MALME-3M melanoma, more than 100 µM. For the same compound, the TGI in the experiment with UACC-257 melanoma is more than 100 µM; in the experiment with UACC-62 melanoma, more than 100 µM; with SNB-19 CNS, more than 100 µM; in the experiment on LOX IMVI melanoma, more than 100 µM; in the experiment with SK-MEL-28 melanoma, more than 100 µM; with SF-295 CNS, 91.3 µM. For the same compound, the TGI in the experiment with NCI-H522 lung, with COLO 205 colon and in the experiment on MALME-3M melanoma was more than 100 µM throughout.

Values taken from PubChem BioAssay (NCI).
